Several values for one entry are separate records, joined by “and”; a condition that tells them apart may be missing. Equal entries are not always repeated.
Tests used:
Test in all cases: PamChip tyrosine kinase microarray
Format in all cases: biochemical
Details in all cases: 0.1 µM, HL60 lysate
[1] = molecular target: T1, FGFR2 (P21802) (Homo sapiens, UniProt P21802)
T1 construct: purchased PamGene (PamChip PTK array, Upstream Kinase Analysis)
Description: (§1) The reproducible high potency of KIM-161 on leukemia cell lines was initially speculated to encompass Src tyrosine kinase inhibition. Even so, we also suspected that KIM-161 might be affecting other tyrosine kinases because the HL60 cells are not among the most Src-dependent highly proliferative cells ([Collins, 1987]). Therefore, a profiling of the kinase activities was performed after treatment with KIM-161 using PamChip® tyrosine kinase microarray. This analysis is based on incubation of cell lysate with 3D microarray that projects peptides specific for 143 tyrosine kinases. If a kinase is modified in the cells, it will be detected by phosphorylating its specific peptide in the microarray.
(§2) This test measured the activities of an array of tyrosine kinases of treated HL60 cells compared to the control (untreated cells) after incubation with KIM-161 for 48 h at concentrations of 0.001, 0.01, 0.1, 1.0, 10, and 50 µM. The log fold change (LFC) heat map was initially used to identify significant peptides affected at each concentration (Figure 5).
(§3) An Upstream Kinase Tool was used to generate a putative list of kinases responsible for phosphorylating the phosphosites on the PamChip®. It is an interpretation and is highly dependent on the contents of the underlying phosphorylation databases. Kinase score (Table 2) was used for ranking kinases based on their significance and specificity in terms of the set of peptides used for the corresponding kinase. Kinase statistics indicates the overall change of the peptide set that represents a certain kinase. Kinase statistics value of <0 indicates lower kinase activity in the lysate spiked with the compound and vice versa. Table 2 lists the 20 most changed kinases within treated HL60 cell lysates by 0.1 μM KIM-161.
(§4) Every compound had spiked into a leukemic (AML) cell line HL60 lysate at different concentrations (0.001, 0.01, 0.1, 1, 10, and 50 μM). In addition, DMSO had also spiked at a low concentration (2% v/v) to the HL60 lysate as the control. The samples were profiled on PamGene's tyrosine kinase (PTK) arrays in technical replicates, covering a total of 196 phosphorylation sites. The frozen leukemic HL60 cultured cell pellet was sent to PamGene. At PamGene, the cells were lysed in the presence of the lysis buffer and proteases inhibitor cocktail. The protein concentration was measured using the standard Bradford assay as per the PamGene SOPs. These lysates were further used for generating the PTK activity profiles. For spiking, KIM-161 was received in powder form and dissolved in DMSO at the PamGene facility, followed by storing it at −20°C in small aliquots. PamGene used its in-house bioinformatics toolbox in combination with other methods to generate the hypotheses of signaling pathways.

[2] = molecular target: T2, IRR (P14616) (Homo sapiens, UniProt P14616)
T2 construct: purchased PamGene (PamChip PTK array, Upstream Kinase Analysis)
Description: as §1, §2, §3, §4

[3] = molecular target: T3, Lck (P06239) (Homo sapiens, UniProt P06239)
T3 construct: purchased PamGene (PamChip PTK array, Upstream Kinase Analysis)
T3 sequence (P06239 whole entry): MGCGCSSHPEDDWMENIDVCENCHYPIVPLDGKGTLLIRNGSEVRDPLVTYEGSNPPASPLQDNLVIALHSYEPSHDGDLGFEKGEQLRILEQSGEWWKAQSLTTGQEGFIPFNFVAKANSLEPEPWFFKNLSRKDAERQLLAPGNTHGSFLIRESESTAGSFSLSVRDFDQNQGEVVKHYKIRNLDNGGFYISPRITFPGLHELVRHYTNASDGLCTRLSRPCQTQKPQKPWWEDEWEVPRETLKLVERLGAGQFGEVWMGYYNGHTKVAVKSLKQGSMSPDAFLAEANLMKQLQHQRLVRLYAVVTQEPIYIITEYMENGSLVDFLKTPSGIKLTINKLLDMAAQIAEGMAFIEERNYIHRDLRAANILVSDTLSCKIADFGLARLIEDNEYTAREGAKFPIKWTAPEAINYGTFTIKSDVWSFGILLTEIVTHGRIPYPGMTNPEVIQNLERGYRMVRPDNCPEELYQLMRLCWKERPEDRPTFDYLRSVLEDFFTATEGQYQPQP
Description: as §1, §2, §3, §4

[4] = molecular target: T4, Met (P08581) (Homo sapiens, UniProt P08581)
T4 construct: purchased PamGene (PamChip PTK array, Upstream Kinase Analysis)
T4 sequence (P08581 25-1390): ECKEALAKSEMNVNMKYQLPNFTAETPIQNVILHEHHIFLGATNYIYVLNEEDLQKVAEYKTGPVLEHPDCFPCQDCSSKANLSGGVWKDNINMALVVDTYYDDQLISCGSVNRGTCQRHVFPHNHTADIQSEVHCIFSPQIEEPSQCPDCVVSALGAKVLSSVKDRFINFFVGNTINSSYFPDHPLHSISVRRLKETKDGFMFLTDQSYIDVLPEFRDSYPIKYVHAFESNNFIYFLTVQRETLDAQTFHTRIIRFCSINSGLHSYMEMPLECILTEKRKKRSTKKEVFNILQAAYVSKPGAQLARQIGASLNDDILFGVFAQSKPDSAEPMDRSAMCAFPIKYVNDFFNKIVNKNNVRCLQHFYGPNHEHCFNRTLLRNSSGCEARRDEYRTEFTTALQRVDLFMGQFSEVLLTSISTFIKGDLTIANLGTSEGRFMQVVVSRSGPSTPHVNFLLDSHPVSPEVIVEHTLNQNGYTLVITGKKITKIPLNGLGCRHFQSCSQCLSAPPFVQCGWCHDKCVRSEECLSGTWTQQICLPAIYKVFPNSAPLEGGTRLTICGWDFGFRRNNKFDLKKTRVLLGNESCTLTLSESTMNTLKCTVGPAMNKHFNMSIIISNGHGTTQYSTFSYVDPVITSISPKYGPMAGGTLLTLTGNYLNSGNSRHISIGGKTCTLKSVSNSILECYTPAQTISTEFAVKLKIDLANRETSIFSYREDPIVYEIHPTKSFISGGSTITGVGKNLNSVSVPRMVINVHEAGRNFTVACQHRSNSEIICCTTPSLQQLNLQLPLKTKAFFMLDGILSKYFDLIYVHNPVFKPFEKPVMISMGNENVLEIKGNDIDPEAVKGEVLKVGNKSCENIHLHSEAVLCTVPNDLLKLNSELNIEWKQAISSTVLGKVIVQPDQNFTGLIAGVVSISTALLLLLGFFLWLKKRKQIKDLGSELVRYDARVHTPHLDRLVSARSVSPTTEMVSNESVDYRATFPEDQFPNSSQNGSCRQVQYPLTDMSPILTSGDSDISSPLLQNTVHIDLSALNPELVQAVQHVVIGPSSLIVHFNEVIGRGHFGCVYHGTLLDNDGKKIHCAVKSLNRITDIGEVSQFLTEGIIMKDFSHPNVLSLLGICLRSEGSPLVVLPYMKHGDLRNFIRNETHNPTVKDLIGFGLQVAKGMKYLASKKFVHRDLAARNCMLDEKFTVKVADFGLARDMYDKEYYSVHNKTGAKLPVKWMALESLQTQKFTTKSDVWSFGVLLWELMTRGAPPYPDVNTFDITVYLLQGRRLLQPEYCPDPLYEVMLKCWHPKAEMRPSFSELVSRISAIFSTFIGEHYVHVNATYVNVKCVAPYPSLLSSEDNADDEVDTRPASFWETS
Description: as §1, §2, §3, §4

[5] = molecular target: T5, PDGFR[alpha] (P16234) (Homo sapiens, UniProt P16234)
T5 construct: purchased PamGene (PamChip PTK array, Upstream Kinase Analysis)
Description: as §1, §2, §3, §4

[6] = molecular target: T6, Ros (P08922) (Homo sapiens, UniProt P08922)
T6 construct: purchased PamGene (PamChip PTK array, Upstream Kinase Analysis)
T6 sequence (P08922 28-2347): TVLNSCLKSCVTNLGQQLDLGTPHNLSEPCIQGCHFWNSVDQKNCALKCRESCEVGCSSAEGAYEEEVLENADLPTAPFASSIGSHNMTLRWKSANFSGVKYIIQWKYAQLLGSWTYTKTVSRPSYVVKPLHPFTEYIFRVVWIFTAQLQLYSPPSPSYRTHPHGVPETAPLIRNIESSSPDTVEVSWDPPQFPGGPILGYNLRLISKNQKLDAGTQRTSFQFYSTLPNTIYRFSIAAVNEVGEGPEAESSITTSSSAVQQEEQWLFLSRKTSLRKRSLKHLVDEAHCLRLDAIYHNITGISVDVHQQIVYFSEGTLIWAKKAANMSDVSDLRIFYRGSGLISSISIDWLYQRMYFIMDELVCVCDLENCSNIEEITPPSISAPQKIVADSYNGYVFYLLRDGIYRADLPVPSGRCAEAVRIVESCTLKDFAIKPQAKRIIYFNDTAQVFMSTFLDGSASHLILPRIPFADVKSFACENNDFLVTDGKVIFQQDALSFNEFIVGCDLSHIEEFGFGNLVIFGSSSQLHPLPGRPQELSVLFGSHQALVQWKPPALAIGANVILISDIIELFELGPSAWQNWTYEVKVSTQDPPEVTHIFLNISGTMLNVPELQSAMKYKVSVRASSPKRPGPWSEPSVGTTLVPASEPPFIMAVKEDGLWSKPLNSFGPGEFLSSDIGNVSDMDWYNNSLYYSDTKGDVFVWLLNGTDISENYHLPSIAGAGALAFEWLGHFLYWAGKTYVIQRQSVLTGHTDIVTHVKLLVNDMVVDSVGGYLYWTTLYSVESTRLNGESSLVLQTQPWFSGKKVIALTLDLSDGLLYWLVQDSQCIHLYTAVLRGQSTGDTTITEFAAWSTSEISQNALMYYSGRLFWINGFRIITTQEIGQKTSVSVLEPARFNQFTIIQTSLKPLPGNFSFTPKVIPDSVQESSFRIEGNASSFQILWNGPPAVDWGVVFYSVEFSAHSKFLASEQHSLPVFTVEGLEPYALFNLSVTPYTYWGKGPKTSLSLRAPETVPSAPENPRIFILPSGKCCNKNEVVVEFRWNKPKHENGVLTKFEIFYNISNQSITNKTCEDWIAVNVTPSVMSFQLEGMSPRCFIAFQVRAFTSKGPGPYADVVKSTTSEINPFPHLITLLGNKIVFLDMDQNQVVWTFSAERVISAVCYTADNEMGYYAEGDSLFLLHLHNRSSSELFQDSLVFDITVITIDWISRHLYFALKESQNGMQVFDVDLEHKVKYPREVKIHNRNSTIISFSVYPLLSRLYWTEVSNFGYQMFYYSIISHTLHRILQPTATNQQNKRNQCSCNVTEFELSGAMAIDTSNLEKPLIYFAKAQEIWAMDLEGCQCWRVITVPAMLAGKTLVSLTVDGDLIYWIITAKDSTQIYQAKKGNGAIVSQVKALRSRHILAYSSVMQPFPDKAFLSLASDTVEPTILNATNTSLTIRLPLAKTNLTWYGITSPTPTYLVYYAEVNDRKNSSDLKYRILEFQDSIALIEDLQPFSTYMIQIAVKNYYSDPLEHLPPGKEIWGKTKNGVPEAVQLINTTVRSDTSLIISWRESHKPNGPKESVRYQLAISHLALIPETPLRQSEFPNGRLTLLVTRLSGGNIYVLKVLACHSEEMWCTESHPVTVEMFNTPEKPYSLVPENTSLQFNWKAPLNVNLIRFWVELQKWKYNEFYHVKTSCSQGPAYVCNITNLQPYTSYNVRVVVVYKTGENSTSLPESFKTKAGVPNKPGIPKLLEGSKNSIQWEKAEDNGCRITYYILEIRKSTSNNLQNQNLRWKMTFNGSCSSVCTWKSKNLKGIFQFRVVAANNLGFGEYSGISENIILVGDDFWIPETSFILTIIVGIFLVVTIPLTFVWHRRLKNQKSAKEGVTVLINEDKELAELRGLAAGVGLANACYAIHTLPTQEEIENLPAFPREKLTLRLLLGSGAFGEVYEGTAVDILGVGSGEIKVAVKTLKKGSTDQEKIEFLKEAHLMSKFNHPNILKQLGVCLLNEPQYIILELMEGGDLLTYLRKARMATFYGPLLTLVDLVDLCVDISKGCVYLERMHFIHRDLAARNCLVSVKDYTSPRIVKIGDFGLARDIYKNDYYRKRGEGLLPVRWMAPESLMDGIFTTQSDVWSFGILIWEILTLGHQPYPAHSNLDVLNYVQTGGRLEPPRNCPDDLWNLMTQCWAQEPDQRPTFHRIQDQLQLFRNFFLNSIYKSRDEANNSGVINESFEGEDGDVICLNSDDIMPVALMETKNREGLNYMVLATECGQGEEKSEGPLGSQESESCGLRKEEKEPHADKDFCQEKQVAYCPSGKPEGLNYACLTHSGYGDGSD
Description: as §1, §2, §3, §4

[7] = molecular target: T7, TEC (P42680) (Homo sapiens, UniProt P42680)
T7 construct: purchased PamGene (PamChip PTK array, Upstream Kinase Analysis)
T7 sequence (P42680 1-631): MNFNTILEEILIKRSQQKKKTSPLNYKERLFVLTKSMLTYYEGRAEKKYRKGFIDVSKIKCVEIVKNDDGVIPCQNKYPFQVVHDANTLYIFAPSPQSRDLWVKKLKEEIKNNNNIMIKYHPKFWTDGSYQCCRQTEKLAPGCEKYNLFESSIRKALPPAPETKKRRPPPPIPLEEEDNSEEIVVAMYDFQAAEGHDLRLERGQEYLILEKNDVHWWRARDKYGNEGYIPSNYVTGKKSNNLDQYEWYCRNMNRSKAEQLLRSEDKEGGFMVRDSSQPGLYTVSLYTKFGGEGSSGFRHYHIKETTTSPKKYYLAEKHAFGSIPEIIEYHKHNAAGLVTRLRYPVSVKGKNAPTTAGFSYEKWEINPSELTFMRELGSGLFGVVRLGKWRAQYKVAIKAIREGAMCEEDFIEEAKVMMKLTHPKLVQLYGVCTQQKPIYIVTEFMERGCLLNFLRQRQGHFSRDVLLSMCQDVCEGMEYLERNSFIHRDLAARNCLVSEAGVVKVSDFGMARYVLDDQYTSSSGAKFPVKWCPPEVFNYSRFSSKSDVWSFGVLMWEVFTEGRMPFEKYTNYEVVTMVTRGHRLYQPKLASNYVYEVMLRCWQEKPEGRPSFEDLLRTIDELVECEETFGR
Description: as §1, §2, §3, §4

T1 sequence (P21802 22-821): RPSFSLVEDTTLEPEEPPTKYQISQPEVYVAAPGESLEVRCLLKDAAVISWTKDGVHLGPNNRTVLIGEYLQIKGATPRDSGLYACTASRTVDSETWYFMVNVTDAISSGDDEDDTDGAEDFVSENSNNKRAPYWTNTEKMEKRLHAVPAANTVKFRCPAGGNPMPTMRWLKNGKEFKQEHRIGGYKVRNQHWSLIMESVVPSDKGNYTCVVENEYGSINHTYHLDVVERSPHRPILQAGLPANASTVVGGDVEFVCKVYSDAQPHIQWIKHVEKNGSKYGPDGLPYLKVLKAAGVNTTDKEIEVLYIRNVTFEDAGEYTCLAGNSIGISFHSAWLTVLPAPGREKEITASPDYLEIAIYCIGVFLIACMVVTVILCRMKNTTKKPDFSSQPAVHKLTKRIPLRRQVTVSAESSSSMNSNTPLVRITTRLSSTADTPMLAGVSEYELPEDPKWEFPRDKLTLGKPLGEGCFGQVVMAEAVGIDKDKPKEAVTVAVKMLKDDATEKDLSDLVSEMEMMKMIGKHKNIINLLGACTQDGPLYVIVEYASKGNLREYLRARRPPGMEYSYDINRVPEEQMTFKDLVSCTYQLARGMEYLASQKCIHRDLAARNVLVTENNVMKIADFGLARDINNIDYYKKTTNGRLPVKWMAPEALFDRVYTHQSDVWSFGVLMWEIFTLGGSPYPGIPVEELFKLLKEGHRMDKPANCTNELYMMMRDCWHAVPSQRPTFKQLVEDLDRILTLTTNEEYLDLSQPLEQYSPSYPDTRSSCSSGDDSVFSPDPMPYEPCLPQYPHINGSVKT

## COc1ccc(/C=C2\N=C(C)N(c3ccc(CC(=O)NCc4ccccc4)cc3)C2=O)cc1 [Compound 4c, (Z)-N-Benzyl-2-(4-(4-(4-methoxybenzylidene)-2-methyl-5-oxo-4,5-dihydro-1H-imidazol-1-yl)phenyl)acetamide]
[1]
  Mean Final score (Kinase score): 2.386
  Mean Kinase Statistic: -1.189
  Mean Significance Score: 2.048
  Mean Specificity Score: 0.3335
[2]
  Mean Final score (Kinase score): 2.412
  Mean Kinase Statistic: -1.1771
  Mean Significance Score: 2.053
  Mean Specificity Score: 0.3184
[3]
  Mean Significance Score: 2.048
  Mean Specificity Score: 0.6669
[3]; listed as KIM-161
  Mean Final score (Kinase score): 2.76 and 2.758
[4]
  Mean Final score (Kinase score): 2.5
  Mean Kinase Statistic: -1.184
  Mean Significance Score: 2.048
  Mean Specificity Score: 0.4367
[5]
  Mean Final score (Kinase score): 1.95
  Mean Kinase Statistic: -1.208
  Mean Significance Score: 1.701
  Mean Specificity Score: 0.3388
[6]
  Mean Significance Score: 1.955
  Mean Specificity Score: 0.9862
[6]; listed as KIM-161
  Mean Final score (Kinase score): 2.90 and 2.9031
[7]
  Mean Final score (Kinase score): 2.197
  Mean Kinase Statistic: -1.125
  Mean Significance Score: 2.048
  Mean Specificity Score: 0.171
